Patent publication US20120108501A1, “Protease Inhibitors” (priority 2009, published 2012)
Where two headings read alike, the source gives them in different places.

Tests used:
[1] = Pharmacokinetics of PEGylated protease inhibitor prodrugs in rats; type: in vivo, male Sprague-Dawley rats; design: AUCall / AUC: concentration or dose not given beside the values; settings: prodrug in plasma
Description: Pharmacokinetic analysis of protease inhibitors described herein was conducted. To evaluate the pharmacokinetics of PEGylated protease inhibitor conjugates with releasable lipophilic attachments, test compounds were administered to male Sprague-Dawley rats.
At various times following test article administration, serial blood samples were collected from indwelling jugular vein catheters and transferred to micro-tubes containing 7.5 μL of 20% w/v K2EDTA as an anticoagulant. Following processing of the blood samples to plasma (10 minutes at 10000 rpm, Centrifuge Model: Kubota 3500), plasma concentrations of the test article or corresponding PEGylated molecule released from the test article was measured using LC-MS/MS methods. Pharmacokinetic parameters were estimated using noncompartmental methods.
Table 3 presents a summary of pharmacokinetic parameters of PEGylated protease inhibitor prodrugs, wherein Cmax is the maximum (peak) concentration, AUCall represents the area under the concentration-time curve from zero to time of last concentration value, T½ is half life, and MRTlast is the mean residence time to last observable concentration

[2] = Pharmacokinetics of released PEGylated protease inhibitor following P.O. administration of prodrugs in rats; type: in vivo, male Sprague-Dawley rats; design: AUCall Mean: concentration or dose not given beside the values; C24 Mean: unit not given here; settings: rats (n = 4-5); for C24 Mean: concentration at 24 hours
Method in brief: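 Prodrugs given orally to male Sprague-Dawley rats, with serial blood via jugular catheter into K2EDTA. Plasma levels of test article or released PEGylated inhibitor measured by LC-MS/MS. PK parameters from noncompartmental analysis.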

[3] = mPEG5-atazanavir in plasma after PO administration of mPEG5-ATV or of the listed prodrug
[4] = mPEG3-atazanavir in plasma after PO administration of mPEG3-ATV or of the listed prodrug
[5] = mPEG6-atazanavir in plasma after PO administration of mPEG6-ATV or of the listed prodrug

Compound	MRTlast [1] [h]	t½(z) [1] [h]	Cmin(24 hr) ([1]; 24 hr)	AUCall ([1]; mean ± SD) [ng·h/mL]	Cmax ([1]; mean ± SD) [ng/mL]	AUCall Mean [2, 3] [ng·h/mL]	Cmax Mean [2, 3] [ng/mL]	MRT last Mean [2, 3] [h]	Tmax Median [2, 3] [h]	AUCall Mean [2, 4] [ng·h/mL]	Cmax Mean [2, 4] [ng/mL]	MRT last Mean [2, 4] [h]	Tmax* Median [2, 4] [h]	other results
COCCOCCOCCOCCOCCOC(=O)NC(C(=O)NC(Cc1ccccc1)C(CN(Cc1ccc(-c2ccccn2)cc1)NC(=O)C(NC(=O)OC)C(C)(C)C)OCOC)C(C)(C)C (stereo not drawn) [mPEG5-Atazanavir-methyl methyl ether, mPEG5-Atazanavir Methyl Methyl Ether]	3.93 ± 1.41	4.54 ± 1.68	6.61 ± 8.39 ng/mL	3530 ± 1960	773 ± 481	137	23.3	4.76	2.00					
COCCOCCOCCOC(=O)NC(C(=O)NC(Cc1ccccc1)C(CN(Cc1ccc(-c2ccccn2)cc1)NC(=O)C(NC(=O)OC)C(C)(C)C)OC(=O)COCCOC(=O)C(N)Cc1ccccc1)C(C)(C)C.Cl (stereo not drawn) [mPEG3-Atazanavir-CME-phenylalanine HCl, mPEG3-atazanavir-CME-phenylalanine]	2.36 ± 3.57			10.2 ± 8.7	7.98 ± 6.06					99.5	4.48	18.5	6.00	
Phe-Gly-mPEG3-Atazanavir Hydrochloride	0.602 ± 0.164	1.24 ± 0.237		6.07 ± 3.82	7.38 ± 6.67					69.6	5.02	12.6	1.00	
COCCOCCOCCOC(=O)NC(C(=O)NC(Cc1ccccc1)C(CN(Cc1ccc(-c2ccccn2)cc1)NC(=O)C(NC(=O)OC)C(C)(C)C)OC(=O)COCCOC(=O)C(N)CC(C)C)C(C)(C)C.Cl (stereo not drawn) [mPEG3-Atazanavir-CME-Leucine HCl, mPEG3-Atazanavir-CME-Leucine]	3.74 ± 6.09			13.1 ± 17.2	11.5 ± 12.8					85.9	4.39	17.4	9.00	
CCOC(C)OC(CN(Cc1ccc(-c2ccccn2)cc1)NC(=O)C(NC(=O)OC)C(C)(C)C)C(Cc1ccccc1)NC(=O)C(NC(=O)OCCOCCOCCOCCOCCOCCOC)C(C)(C)C (mixture of isomers) [1-ethoxyethoxy-mPEG6-Atazanivir, ethoxy ethoxy mPEG6-atazanavir]	2.17 ± 0.340	2.45 ± 0.630	0.354 ± 0.410 ng/mL	2200 ± 2000	630 ± 550									AUCall Mean [2, 5]: 137 ng·h/mL; Cmax Mean [2, 5]: 28.8 ng/mL; MRT last Mean [2, 5]: 4.33 h; Tmax Median [2, 5]: 1.50 h
COCCOCCOCCOCCOCCOC(=O)NC(C(=O)NC(Cc1ccccc1)C(CN(Cc1ccc(-c2ccccn2)cc1)NC(=O)C(NC(=O)OC)C(C)(C)C)OC(=O)COCCOC(=O)C(N)Cc1ccccc1)C(C)(C)C.Cl (stereo not drawn) [mPEG5-Atazanavir-CME-phenylalanine HCl]	0.25			0.0554 ± 0.096	0.222 ± 0.384	54.1	2.84	14.0	12.0					
COCCOCCOCCOC(=O)NC(C(=O)NC(Cc1ccccc1)C(CN(Cc1ccc(-c2ccccn2)cc1)NC(=O)C(NC(=O)OC)C(C)(C)C)OC(=O)CCCC(=O)O)C(C)(C)C (stereo not drawn) [mPEG3-Atazanavir-glutaric acid]	8.23 ± 3.48	7.69 ± 2.54	2.68 ± 1.51 ng/mL	351 ± 50.2	61.3 ± 52.7					53.8		19.5	24.0	
COCCOCCOCCOC(=O)NC(C(=O)NC(Cc1ccccc1)C(CN(Cc1ccc(-c2ccccn2)cc1)NC(=O)C(NC(=O)OC)C(C)(C)C)OC(=O)C(N)CC(C)C)C(C)(C)C.Cl [mono-mPEG3-Atazanavir-L-Leucine, mPEG3-Atazanavir-L-Leucine]	2.73 ± 0.912	3.33 ± 0.958		1930 ± 1170	470 ± 179					347	66.0	4.14	0.750	
COCCOCCOCCOCCOCCOCCOC(=O)NC(C(=O)NC(Cc1ccccc1)C(CN(Cc1ccc(-c2ccccn2)cc1)NC(=O)C(NC(=O)OC)C(C)(C)C)OC(=O)COCCOC(=O)C(N)CC(C)C)C(C)(C)C.Cl (stereo not drawn) [mPEG6-Atazanavir-CME-Leucine HCl, mPEG6-Atazanavir-CME-Leucine]	2.24 ± 2.58			2.56 ± 2.89	0.851 ± 0.730									AUCall Mean [2, 5]: 287 ng·h/mL; Cmax Mean [2, 5]: 8.65 ng/mL; MRT last Mean [2, 5]: 21.8 h; Tmax Median [2, 5]: 1.50 h
COCCOCCOCCOCCOCCOC(=O)NC(C(=O)NC(Cc1ccccc1)C(CN(Cc1ccc(-c2ccccn2)cc1)NC(=O)C(NC(=O)OC)C(C)(C)C)OC(=O)COCCOC(=O)C(N)CC(C)C)C(C)(C)C.Cl (stereo not drawn) [mPEG5-Atazanavir-CME-Leucine HCl, mPEG5-Atazanavir-CME-Leucine]	0.250 ± 0.000			0.119 ± 0.0826	0.45 ± 0.330	65.6	2.88	16.5	9.00					
CCOC(=O)O[C@@H](CN(Cc1ccc(-c2ccccn2)cc1)NC(=O)[C@@H](NC(=O)OC)C(C)(C)C)[C@H](Cc1ccccc1)NC(=O)[C@@H](NC(=O)OCCOCCOCCOCCOCCOC)C(C)(C)C.Cl [mPEG5-Atazanavir - Ethyl Carbonate HCl, mPEG5-Atazanavir Ethyl Carbonate]	2.6 ± 0.514	7.46 ± 4.14	2.19 ± 0.700 ng/mL	2250 ± 389	740 ± 253	93.2	16.7	8.51	2.00					C24 Mean [2, 3]: 2.76
CCOCO[C@@H](CN(Cc1ccc(-c2ccccn2)cc1)NC(=O)[C@@H](NC(=O)OC)C(C)(C)C)[C@H](Cc1ccccc1)NC(=O)[C@@H](NC(=O)OCCOCCOCCOC)C(C)(C)C [mPEG3-Atazanavir-methyl ethyl ether, mPEG3-Atazanavir Methyl Ethyl Ether]	2.44 ± 0.920	9.41 ± 3.35	0.797 ± 0.260 ng/mL	6590 ± 2150	1600 ± 442					822	190	3.29	0.750	C24 Mean [2, 4]: 1.20
COCCOCCOCCOCCOCCOC(=O)N[C@H](C(=O)N[C@@H](Cc1ccccc1)[C@H](CN(Cc1ccc(-c2ccccn2)cc1)NC(=O)[C@@H](NC(=O)OC)C(C)(C)C)OC(=O)[C@H](CC(C)C)NC(=O)[C@@H](N)CC(C)C)C(C)(C)C.Cl [Leu-Leu-mPEG5-Atazanavir HCl, Leu-Leu-mPEG5-Atazanavir Hydrochloride]						118	14.1	10.7	0.750					MRT last ([1]; male, Sprague-Dawley, rat, in vivo): 3.59 ± 3.27 h; concentration at 24 hr ([1]; male, Sprague-Dawley, rat, in vivo, 24 hr, read-out: Cmin(24 hr)): 0.201 ± 0.401 ng/mL; AUC ([1]; male, Sprague-Dawley, rat, in vivo, mean ± SD): 24.9 ± 6.24 ng·h/mL; Cmax ([1]; male, Sprague-Dawley, rat, in vivo, mean ± SD, read-out: Cmax): 7.21 ± 0.417 ng/mL; half-life ([1]; male, Sprague-Dawley, rat, in vivo, read-out: t½(z) (converted)): 3.6 ± 2.59 h; C24 Mean [2, 3]: 2.98
COCCOCCOCCOCCOCCOC(=O)NC(C(=O)NC(Cc1ccccc1)C(CN(Cc1ccc(-c2ccccn2)cc1)NC(=O)C(NC(=O)OC)C(C)(C)C)OC(=O)COCCOC(=O)C(Cc1ccccc1)NC(=O)C(N)Cc1ccccc1)C(C)(C)C.Cl (stereo not drawn) [CME Phe-Phe-mPEG5-Atazanavir HCl, mPEG5-atazanavir-ethoxy-CME-Phe-Phe]	1.26		BLQ	1.22	2.36	299		23.9	24.0					
